The values below come from US6436966B1, “Adenosine A3 receptor antagonists” (Takeda Chemical Ind., Ltd., priority 1997, dated 2002).

Counter-ions that a name gives are not always drawn.

Data set [1] deals with T1, human adenosine A3 receptor (Homo sapiens, UniProt P0DMS8).
T1 construct: expressed in transfected cells; membrane fraction used
T1 sequence (P0DMS8 1-318): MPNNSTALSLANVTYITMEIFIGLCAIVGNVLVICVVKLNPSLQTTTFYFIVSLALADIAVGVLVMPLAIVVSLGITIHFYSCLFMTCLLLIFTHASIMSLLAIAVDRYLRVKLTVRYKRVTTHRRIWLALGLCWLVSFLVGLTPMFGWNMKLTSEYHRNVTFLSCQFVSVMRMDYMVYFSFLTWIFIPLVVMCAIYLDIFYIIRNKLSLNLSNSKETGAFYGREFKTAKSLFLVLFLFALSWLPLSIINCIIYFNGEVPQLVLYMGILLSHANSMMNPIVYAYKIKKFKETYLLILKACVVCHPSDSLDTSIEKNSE
Kind of data set: Binding assay with adenosine A3 receptor: [3H]-NECA binding to membranes of A3AR/CHO cells. The conditions noted are these: 10 nM [3H]-NECA, 100 μg/ml A3AR/CHO cell membranes, 1 hour at room temperature; read-out: IC50 (concentration that inhibits 50% specific binding of [3H]-NECA to the membrane). As to the method:
(1) Cloning of Human Adenosine A3 Receptor
Cloning of the human adenosine A3 receptor gene was carried out by the polymerase chain reaction (PCR) from human brain cDNA. Using 1 ng of brain cDNA (Quick-Clone cDNA, TOYOBO, Osaka) as template, PCR was performed in DNA Thermal Cycler 480 (Perkin Elmer, Foster, Calif.) (reaction conditions: 35 cycles of 1 min at 95° C., 1 min at 66° C., and 2 min at 75° C.) by mixing primers (50 pmol each), 5′-[…]-3′ [Sequence No. 1] and 5′-[…]-3′ [Sequence No. 2], which were designed referring to nucleotide sequence of adenosine A3 receptor gene reported by Salvatore et. al., (Proc. Natl. Acad. Sci. U.S.A., 90:10365-10369, 1993) and TaKaRa LA PCR Kit Ver.2 (TaKaRa Shuzo Co. Ltd., Kyoto) in a Thermal cycler 480 (Parkin Elmer). The PCR product was electrophoresed and 1.0 kb DNA fragment was recovered. The DNA fragment encoding adenosine A3 receptor was cloned using Original TA Cloning Kit (FUNAKOSHI, Tokyo).
(3) Transfection of Adenosine A3 Receptor Expression Plasmid into CHO (dhfr^−) and the Expression
CHO (dhfr^−) cells were grown on Ham's F-12 medium (Nihon Selyaku, Tokyo) supplement with 10% fetal bovine serum (Life Tech Oriental; Life Technologies, Inc., Rockville, Md., USA) in a 750 ml Tissue culture flask (Becton Dickinson, Mt. View, Calif.). The growing cells were treated with 0.5 g/l trypsin-0.2 g/l EDTA (Life Technologies, Inc., Rockville, Md., USA) to harvest, washed with PBS (Life Technologies, Inc., Rockville, Md., USA), centrifugated at 1000 rpm for 5 min, and suspended in PBS. […] The cells were incubated in assay buffer I (HBSS (Wako chemicals, Osaka) containing 0.1% BSA, 0.25 mM PMSF, 1 μg/ml pepstatin, and 20 μg/ml leupeptin) to which was added 50 pM ^125I-AB-MECA (Amersham) as ligand, for 1 hour, and washed with assay buffer I. The radioactivity associated with the:.cell was measured in a γ-counter to select A3AR/CHO cells which specifically bind to the ligand. […]

Broadly, the melting point is the temperature, or range, at which the solid turns liquid. In the case of `COc1ccc(-c2nc(NC(C)=O)sc2-c2ccncc2)cc1` (as salt: HCl) [13-89], the melting point fell in the range of 275 to 278 °C.

On to `COc1ccc(-c2nc(NC(C)=O)sc2-c2ccncc2)cc1` [13-89], for which, in data set [1], the IC50 is 0.55 nM.

`COc1ccc(-c2nc(NC(=O)C(C)C)sc2-c2cccnc2)cc1` [13-92]: the melting point is 213 to 216 °C. The IC50 in data set [1] turned out to be 0.7 nM.

The molecule `CC(C)(C)c1ccc(-c2sc(N)nc2-c2ccncc2)cc1` [Example Compound 4-1, [5-[4-(1,1-dimethylethyl)phenyl]-4-(4-pyridyl)-1,3-thiazol-2-yl]amine] displayed a melting point of 275 to 277 °C.

For the molecule `Cc1cc(C)cc(-c2sc(N)nc2-c2ccncc2)c1` [Example Compound 4-2, [5-(3,5-dimethylphenyl)-4-(4-pyridyl)-1,3-thiazol-2-yl]amine], the melting point is 262 to 263 °C.

`CC(=O)Nc1nc(-c2ccncc2)c(-c2ccc(C(C)(C)C)cc2)s1` [Example Compound 5-1, N-[5-[4-(1,1-dimethylethyl)phenyl]-4-(4-pyridyl)-1,3-thiazol-2-yl]acetamide]: the melting point lay in the range of 245 to 246 °C.

The molecule `CC(=O)Nc1nc(-c2ccncc2)c(-c2cc(C)cc(C)c2)s1` [Example Compound 5-2, N-[5-(3,5-dimethylphenyl)-4-(4-pyridyl)-1,3-thiazol-2-yl]acetamide] showed a melting point of 304 to 308 °C.

On to `COc1ccc(-c2nc(NC(C)=O)sc2-c2cccnc2)cc1` [Reference Example Compound 10, N-[4-(4-Methoxyphenyl)-5-(3-pyridyl)-1,3-thiazol-2-yl]acetamide], for which the IC50 in data set [1] worked out at 0.27 nM.
